Where a name gives a salt, the structure may show the parent alone.

Assay [1] deals with L6-myotubes. Nature of the assay: Measurement of intracellular cAMP levels in differentiated L6 cells (alpha screen cAMP kit), compared to isoproterenol. The assay is classed as cell-based. The settings on record: agonist 1×10^−5 M, 15 min; for Emax at 10 µM: Rattus norvegicus, L6, 0.25 h, read-out: Biological example 2: intracellular cAMP levels, activity compared to that of isoproterenol. The method in brief: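 L6 myoblasts were differentiated into myotubes over 7 days in 2% FBS, then serum-starved overnight. Agonist at 1×10^−5 M final was applied for 15 min in HBSS with 1% BSA, 5 mM HEPES and 1 mM IBMX, pH 7.4. After ethanol extraction and lysis, cAMP was quantified by AlphaScreen, with activity expressed relative to isoproterenol.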
On the technique in general: Changes in cAMP serve as a functional read-out for many G protein-coupled receptors.

For assay [2], the system named is L6-myotubes. Nature of the assay: Glucose uptake in differentiated L6-myotubes (3H-2-deoxyglucose), compared to isoproterenol. As to conditions: agonist 1×10^−5 M, 50 nM 3H-2-deoxyglucose. The assay is classed as cell-based. Put shortly:
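Serum-starved differentiated L6 myotubes stimulated with agonist at 1×10^−5 M for 1 h 40 min, re-dosed in glucose-free medium for 20 min, then given 50 nM ^3H-2-deoxyglucose for 10 min. Uptake read by β-counting of NaOH lysates; activity expressed relative to isoproterenol.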

With `CC(C)(NC[C@H](O)c1cccc(F)c1)[C@H]1CC[C@H](OCc2ccccc2)CC1` [Example 37, (R)-2-((2-((1r,4R)-4-(Benzyloxy)cyclohexyl)propan-2-yl)amino)-1-(3-fluoro-phenyl)ethan-1-ol], in the assay with L6-myotubes [1], the Emax at 10 µM is under 25%. The “Biological example 1: glucose uptake, activity compared to that of isoproterenol” value in the assay with L6-myotubes [2] is given as “+ +”.

Turning to `CCCS(=O)(=O)N[C@H]1CC[C@@H](CC(C)(C)NC[C@H](O)c2cncc(F)c2)CC1` [Example 198, N-((1S,4s)-4-(2-(((R)-2-(5-Fluoropyridin-3-yl)-2-hydroxyethyl)amino)-2-methylpropyl)cyclohexyl)propane-1-sulfonamide], the Emax at 10 µM in the assay with L6-myotubes [1] was under 25%. Further, the “Biological example 1: glucose uptake, activity compared to that of isoproterenol” value in the assay with L6-myotubes [2] was “+ + +”.

Regarding `O[C@@H](CNCCC[C@H]1CC[C@@H](O)CC1)c1cncc(F)c1` [Example 60, (1R,4s)-4-(3-(((R)-2-(5-Fluoropyridin-3-yl)-2-hydroxyethyl)amino)propyl)-cyclohexan-1-ol], the Emax at 10 µM in the assay with L6-myotubes [1] was under 25%. In addition, in the assay on L6-myotubes [2], the “Biological example 1: glucose uptake, activity compared to that of isoproterenol” value was “+ +”.

Consider `O[C@@H](CNC[C@H]1CC[C@@H](OCc2ccccc2)CC1)c1cccc(F)c1` [Example 25, (R)-2-((((1s,4S)-4-(Benzyloxy)cyclohexyl)methyl)amino)-1-(3-fluoro-phenyl)ethan-1-ol], for which the Emax at 10 µM in the assay on L6-myotubes [1] was under 25%; in the assay on L6-myotubes [2] (read-out: Biological example 1: glucose uptake, activity compared to that of isoproterenol), 25 to 50%.

Consider `CC(=O)N(C)[C@H]1CC[C@H](CC(C)(C)NC[C@H](O)c2cccc(F)c2)CC1.Cl` [Example 178, N-((1R,4r)-4-(2-(((R)-2-(3-Fluorophenyl)-2-hydroxyethyl)amino)-2-methylpropyl)cyclohexyl)-N-methylacetamide hydrochloride], for which the Emax at 10 µM in the assay with L6-myotubes [1] was under 25%. Also, the “Biological example 1: glucose uptake, activity compared to that of isoproterenol” value with L6-myotubes [2] is listed as “+ + +”.

In the case of `CC(C)(C[C@H]1CC[C@H](NC(=O)C2CC2)CC1)NC[C@H](O)c1cccc(F)c1.Cl` [Example 156, N-((1R,4r)-4-(2-(((R)-2-(3-Fluorophenyl)-2-hydroxyethyl)amino)-2-methylpropyl)cyclohexyl)cyclopropanecarboxamide hydrochloride], in the assay on L6-myotubes [1], the “Biological example 2: intracellular cAMP levels, activity compared to that of isoproterenol” value is given as “+ + +”. Moreover, the “Biological example 1: glucose uptake, activity compared to that of isoproterenol” value in the assay with L6-myotubes [2] was “+ + +”.

Turning to `CO[C@H]1CCC[C@@H](C(C)(C)NC[C@H](O)c2cncc(F)c2)C1` (single isomer, unassigned) [Example 122], in the assay on L6-myotubes [1], the “Biological example 2: intracellular cAMP levels, activity compared to that of isoproterenol” value is “+ +”. Also, the “Biological example 1: glucose uptake, activity compared to that of isoproterenol” value with L6-myotubes [2] is recorded as “+ + +”.

Consider `CC(C)(C[C@H]1CC[C@@H](NS(C)(=O)=O)CC1)NC[C@H](O)c1cccc(F)c1` [Example 170, N-((1S,4s)-4-(2-(((R)-2-(3-Fluorophenyl)-2-hydroxyethyl)amino)-2-methylpropyl)cyclohexyl)methanesulfonamide hydrochloride], for which the Emax at 10 µM in the assay with L6-myotubes [1] was under 25%. Besides, the “Biological example 1: glucose uptake, activity compared to that of isoproterenol” value in the assay with L6-myotubes [2] is on record as “+ + +”.

`CNS(=O)(=O)[C@H]1CC[C@@H](CC(C)(C)NC[C@H](O)c2cncc(F)c2)CC1` [Example 193, (1S,4s)-4-(2-(((R)-2-(5-Fluoropyridin-3-yl)-2-hydroxyethyl)amino)-2-methylpropyl)-N-methylcyclohexane-1-sulfonamide dihydrochloride]: the Emax at 10 µM in the assay on L6-myotubes [1] was under 25%. For the same compound, the “Biological example 1: glucose uptake, activity compared to that of isoproterenol” value in the assay on L6-myotubes [2] is given as “+ + +”.

Consider `CC(=O)N[C@H]1CC[C@@H](CC(C)(C)NC[C@H](O)c2cccc(C#N)n2)CC1` [Example 141, N-((1R,4s)-4-(2-(((S)-2-(6-Cyanopyridin-2-yl)-2-hydroxyethyl)amino)-2-methylpropyl)cyclohexyl)acetamide], for which the Emax at 10 µM with L6-myotubes [1] is under 25%. Also, in the assay with L6-myotubes [2], the “Biological example 1: glucose uptake, activity compared to that of isoproterenol” value is on record as “+ + +”.

As to `CC(C)(C[C@H]1CC[C@H](NS(C)(=O)=O)CC1)NC[C@H](O)c1cccc(C#N)n1` [Example 140, N-((1S,4r)-4-(2-(((S)-2-(6-Cyanopyridin-2-yl)-2-hydroxyethyl)amino)-2-methylpropyl)cyclohexyl)methanesulfonamide], in the assay with L6-myotubes [1], the Emax at 10 µM was under 25%. For the same compound, the “Biological example 1: glucose uptake, activity compared to that of isoproterenol” value in the assay with L6-myotubes [2] was “+ + +”.

In the case of `CC(C)(C[C@H]1CC[C@@H](NC(=O)OC(C)(C)C)CC1)NC[C@H](O)c1cccc(C(F)(F)F)n1` [Example 147, tert-Butyl ((1R,4s)-4-(2-(((S)-2-hydroxy-2-(6-(trifluoromethyl)pyridin-2-yl)ethyl)amino)-2-methylpropyl)cyclohexyl)carbamate], the Emax at 10 µM with L6-myotubes [1] is under 25%. Also, the “Biological example 1: glucose uptake, activity compared to that of isoproterenol” value with L6-myotubes [2] was “+ +”.

With `CCCS(=O)(=O)N[C@H]1CC[C@@H](CC(C)(C)NC[C@H](O)c2cccc(F)c2)CC1` [Example 171, N-((1S,4s)-4-(2-(((R)-2-(3-Fluorophenyl)-2-hydroxyethyl)amino)-2-methylpropyl)cyclohexyl)propane-1-sulfonamide hydrochloride], the Emax at 10 µM in the assay with L6-myotubes [1] is under 25%. Also, the “Biological example 1: glucose uptake, activity compared to that of isoproterenol” value in the assay on L6-myotubes [2] is “+ + +”.

Regarding `O=C(N[C@H]1CC[C@H](CNC[C@H](O)c2cccc(F)c2)CC1)c1ccccc1` [Example 69, N-((1R,4r)-4-((((R)-2-(3-Fluorophenyl)-2-hydroxyethyl)amino)-methyl)cyclohexyl)benzamide], in the assay on L6-myotubes [1], the Emax at 10 µM is under 25%. In addition, the “Biological example 1: glucose uptake, activity compared to that of isoproterenol” value in the assay on L6-myotubes [2] is reported as “+ + +”.

In the case of `CC(C)(C[C@H]1CC[C@@H](NS(=O)(=O)C(F)(F)F)CC1)NC[C@H](O)c1cccc(F)c1` [Example 172, 1,1,1-Trifluoro-N-((1S,4s)-4-(2-(((R)-2-(3-fluorophenyl)-2-hydroxyethyl)-amino)-2-methylpropyl)cyclohexyl)methanesulfonamide hydrochloride], the Emax at 10 µM in the assay on L6-myotubes [1] was under 25%. In addition, the “Biological example 1: glucose uptake, activity compared to that of isoproterenol” value in the assay with L6-myotubes [2] was “+ +”.

As to `CC(=O)N[C@H]1CC[C@H](CCC(C)(C)NC[C@H](O)c2cncc(F)c2)CC1` [Example 93, N-((1S,4r)-4-(3-(((R)-2-(5-Fluoropyridin-3-yl)-2-hydroxyethyl)amino)-3-methylbutyl)cyclohexyl)acetamide], in the assay with L6-myotubes [1], the Emax at 10 µM was under 25%. Also, the “Biological example 1: glucose uptake, activity compared to that of isoproterenol” value in the assay on L6-myotubes [2] is recorded as “+ + +”.

Take `CNS(=O)(=O)[C@H]1CC[C@H](CC(C)(C)NC[C@H](O)c2cccc(F)c2)CC1` [Example 190, (1R,4r)-4-(2-(((R)-2-(3-Fluorophenyl)-2-hydroxyethyl)amino)-2-methyl-propyl)-N-methylcyclohexane-1-sulfonamide hydrochloride]: the Emax at 10 µM with L6-myotubes [1] was in the range of 25 to 50%. Moreover, the “Biological example 1: glucose uptake, activity compared to that of isoproterenol” value with L6-myotubes [2] is listed as “+ + +”.

`CO[C@H]1CC[C@@H](CNC[C@H](O)c2cccc(F)c2)CC1` [Example 1, (R)-1-(3-Fluorophenyl)-2-((((1s,4S)-4-methoxycyclohexyl)-methyl)amino)ethan-1-ol]: in the assay on L6-myotubes [1], the Emax at 10 µM is under 25%. For the same compound, the “Biological example 1: glucose uptake, activity compared to that of isoproterenol” value with L6-myotubes [2] is given as “+ +”.

With `CC(C)(C[C@H]1CC[C@H](S(N)(=O)=O)CC1)NC[C@H](O)c1cncc(F)c1` [Example 195, (1R,4r)-4-(2-(((R)-2-(5-Fluoropyridin-3-yl)-2-hydroxyethyl)amino)-2-methylpropyl)cyclohexane-1-sulfonamide dihydrochloride], the Emax at 10 µM in the assay on L6-myotubes [1] was under 25%. The “Biological example 1: glucose uptake, activity compared to that of isoproterenol” value in the assay on L6-myotubes [2] is reported as “+ + +”.

As for `CCOC(=O)CO[C@H]1CC[C@H](C(C)(C)NC[C@H](O)c2cccc(F)c2)CC1` [Example 123, Ethyl 2-(((1R,4r)-4-(2-(((R)-2-(3-fluorophenyl)-2-hydroxyethyl)amino)-propan-2-yl)cyclohexyl)oxy)acetate], in the assay with L6-myotubes [1], the Emax at 10 µM is under 25%. For the same compound, the “Biological example 1: glucose uptake, activity compared to that of isoproterenol” value in the assay with L6-myotubes [2] is “+ + +”.

`CC(=O)N(C)[C@H]1CC[C@@H](CC(C)(C)NC[C@H](O)c2cccc(F)c2)CC1.Cl` [Example 180, N-((1S,4s)-4-(2-(((R)-2-(3-Fluorophenyl)-2-hydroxyethyl)amino)-2-methylpropyl)cyclohexyl)-N-methylacetamide hydrochloride]: in the assay with L6-myotubes [1], the Emax at 10 µM is under 25%. Also, in the assay on L6-myotubes [2], the “Biological example 1: glucose uptake, activity compared to that of isoproterenol” value is “+ +”.

In the case of `CO[C@H]1CC[C@@H](CCC(C)(C)NC[C@H](O)c2cncc(F)c2)CC1` [Example 24, (R)-1-(5-Fluoropyridin-3-yl)-2-((4-((1s,4R)-4-methoxycyclohexyl)-2-methylbutan-2-yl)amino)ethan-1-ol dihydrochloride], the Emax at 10 µM in the assay with L6-myotubes [1] is under 25%. Also, the “Biological example 1: glucose uptake, activity compared to that of isoproterenol” value in the assay on L6-myotubes [2] is recorded as “+ + +”.

With `CC(C)(NC[C@H](O)c1cccc(F)c1)[C@H]1CC[C@H](OCC(=O)O)CC1` [Example 126, 2-(((1R,4r)-4-(2-(((R)-2-(3-Fluorophenyl)-2-hydroxyethyl)amino)propan-2-yl)cyclohexyl)oxy)acetic acid], in the assay on L6-myotubes [1], the Emax at 10 µM was under 25%. In addition, in the assay on L6-myotubes [2], the “Biological example 1: glucose uptake, activity compared to that of isoproterenol” value is “+ +”.

For `CC(=O)N(C)[C@H]1CC[C@H](CC(C)(C)NC[C@H](O)c2cncc(F)c2)CC1.Cl` [Example 182, N-((1R,4r)-4-(2-(((R)-2-(5-Fluoropyridin-3-yl)-2-hydroxyethyl)amino)-2-methylpropyl)cyclohexyl)-N-methylacetamide], in the assay on L6-myotubes [1], the Emax at 10 µM was in the range of 25 to 50%. Besides, in the assay on L6-myotubes [2], the “Biological example 1: glucose uptake, activity compared to that of isoproterenol” value is “+ + +”.

The values are drawn from patent US20240390298A1, “CYCLOHEXYL BETA-HYDROXY ALKYL AMINES AND MEDICAL USES THEREOF” (ATROGI AB, priority 2021, published 2024).
